Assay results taken from ChEMBL document CHEMBL3885861, “Open TG-GATES”.

Species on record: Rattus norvegicus
Assay: Open TG-GATES - Regimen: Single
Assay type: toxicity, organism-based, Sprague-Dawley
Parameters: regimen Single, gender Male, age 6 weeks
Settings: in vivo, ip, route intraperitoneal injection; for Eos / Fbg / Hb / Lym / MCH / MCHC / MCV / Mono / Neu / PT / Plat / RBC / Ret / WBC / APTT / Bas / Ht: tissue Blood; for KIDNEY_L / KIDNEY_R / KIDNEY_TOTAL: tissue Kidney; for LIVER: tissue Liver
[1] = 0.01 mg/kg, 3 h, dose 10 ug/Kg, dose level Low
[2] = 0.01 mg/kg, 3 h, tissue Plasma, dose 10 ug/Kg, dose level Low
[3] = 0.01 mg/kg, 6 h, dose 10 ug/Kg, dose level Low
[4] = 0.01 mg/kg, 6 h, tissue Plasma, dose 10 ug/Kg, dose level Low
[5] = 0.01 mg/kg, 9 h, dose 10 ug/Kg, dose level Low
[6] = 0.01 mg/kg, 9 h, tissue Plasma, dose 10 ug/Kg, dose level Low
[7] = 0.01 mg/kg, 24 h, dose 10 ug/Kg, dose level Low
[8] = 0.01 mg/kg, 24 h, tissue Plasma, dose 10 ug/Kg, dose level Low

LPS gave an Eos [1] of 0%, a Fbg [1] of 249 mg/dL and a Hb [1] of 12.9 g/dL. The Lym [1] was 66%, the MCH [1] was 21 pg and the MCHC [1] was 32.9%. It also gave an MCV [1] of 63.9 fL, a Mono [1] of 2.3% and a Neu [1] of 30.3%. It also gave a PT [1] of 15.6 s, a Plat [1] of 106.2 x10_4/uL and an RBC [1] of 614.3 x10_4/ul. For the same substance, the Ret [1] was 9.4%, the WBC [1] was 59.5 x10_2/uL and the KIDNEY_L [1] was 0.9 g. It also gave a KIDNEY_R [1] of 0.9 g, a KIDNEY_TOTAL [1] of 1.8 g and an LIVER [1] of 8.5 g. The ALP [2] was 1371 IU/L, the ALT [2] was 39.3 IU/L and the AST [2] was 80.7 IU/L. For the same substance, the BUN [2] was 9.3 mg/dL, the CRE [2] was 0.2 mg/dL and the DBIL [2] was 0.0033 mg/dL. For the same substance, the GLC [2] was 151.7 mg/dL, the IP [2] was 9.1 mg/dL and the K [2] was 3.9 meq/L. The LDH [2] was 87.7 IU/L, the PL [2] was 141.3 mg/dL and the RALB [2] was 2.4 g/dL. It also gave a TBIL [2] of 0.0433 mg/dL, a TC [2] of 75.3 mg/dL and a TG [2] of 50.7 mg/dL. It also gave a TP [2] of 5.2 g/dL, a gamma-GTP [2] of 0.7 IU/L and a TERMINAL_BW [3] of 188.9 g. It also gave an APTT [3] of 20.9 s, a Bas [3] of 0% and an Eos [3] of 1%. For the same substance, the Fbg [3] was 308 mg/dL, the Ht [3] was 40.2% and the Lym [3] was 27%. It also gave an MCH [3] of 21 pg, an MCV [3] of 63.3 fL and a Mono [3] of 1%. The Neu [3] was 71%, the Plat [3] was 84.5 x10_4/uL and the RBC [3] was 634.3 x10_4/ul. The Ret [3] was 7.8%, the WBC [3] was 67.1 x10_2/uL and the KIDNEY_L [3] was 0.9 g. It also gave a KIDNEY_R [3] of 0.9 g, a KIDNEY_TOTAL [3] of 1.7 g and an LIVER [3] of 7.6 g. It also gave an ALP [4] of 1287.3 IU/L, an ALT [4] of 58.7 IU/L and an AST [4] of 96.7 IU/L. The BUN [4] was 8.3 mg/dL, the CRE [4] was 0.2 mg/dL and the Ca [4] was 9.9 mg/dL. For the same substance, the DBIL [4] was 0.0167 mg/dL, the GLC [4] was 150.7 mg/dL and the IP [4] was 9.5 mg/dL. For the same substance, the K [4] was 3.9 meq/L, the LDH [4] was 75.3 IU/L and the Na [4] was 139.7 meq/L. It also gave a PL [4] of 154.3 mg/dL, an RALB [4] of 2.5 g/dL and a TBIL [4] of 0.0667 mg/dL. The TC [4] was 91.7 mg/dL, the TG [4] was 27.3 mg/dL and the TP [4] was 5.4 g/dL. The gamma-GTP [4] was 1.7 IU/L, the TERMINAL_BW [5] was 187.9 g and the APTT [5] was 16.6 s. It also gave a Bas [5] of 0%, an Eos [5] of 0% and a Fbg [5] of 373 mg/dL. For the same substance, the Ht [5] was 40.9%, the Lym [5] was 58.3% and the MCHC [5] was 33%. The MCV [5] was 64.5 fL, the Mono [5] was 2% and the Neu [5] was 38.7%. For the same substance, the PT [5] was 16 s, the Plat [5] was 105.1 x10_4/uL and the RBC [5] was 633.7 x10_4/ul. The Ret [5] was 8.7%, the WBC [5] was 86.6 x10_2/uL and the KIDNEY_L [5] was 0.9 g. It also gave a KIDNEY_R [5] of 0.8 g, a KIDNEY_TOTAL [5] of 1.7 g and an LIVER [5] of 7.1 g. The ALP [6] was 1456.3 IU/L, the ALT [6] was 37 IU/L and the AST [6] was 77.3 IU/L. The BUN [6] was 6.7 mg/dL, the CRE [6] was 0.2 mg/dL and the DBIL [6] was 0.0067 mg/dL. It also gave a GLC [6] of 162.7 mg/dL, an IP [6] of 9.8 mg/dL and a K [6] of 3.6 meq/L. For the same substance, the LDH [6] was 61 IU/L, the Na [6] was 143.7 meq/L and the PL [6] was 151 mg/dL. For the same substance, the RALB [6] was 2.5 g/dL, the TBIL [6] was 0.0567 mg/dL and the TC [6] was 89 mg/dL. For the same substance, the TG [6] was 21 mg/dL, the TP [6] was 5.4 g/dL and the gamma-GTP [6] was 1 IU/L. For the same substance, the TERMINAL_BW [7] was 198.5 g, the Bas [7] was 0% and the Eos [7] was 1%. The Fbg [7] was 435.3 mg/dL, the Hb [7] was 13.6 g/dL and the Lym [7] was 66.3%. For the same substance, the MCH [7] was 21 pg, the MCHC [7] was 32.7% and the MCV [7] was 64.2 fL. It also gave a Mono [7] of 2.3%, a Neu [7] of 29% and a PT [7] of 14.6 s. It also gave a Plat [7] of 77.7 x10_4/uL, an RBC [7] of 646.7 x10_4/ul and a Ret [7] of 7.3%. The WBC [7] was 85.5 x10_2/uL, the KIDNEY_L [7] was 0.9 g and the KIDNEY_R [7] was 0.9 g. It also gave a KIDNEY_TOTAL [7] of 1.8 g, an LIVER [7] of 9.1 g and an ALP [8] of 2203 IU/L. It also gave an ALT [8] of 39.3 IU/L, an AST [8] of 71.7 IU/L and a BUN [8] of 16.3 mg/dL. For the same substance, the CRE [8] was 0.2 mg/dL, the DBIL [8] was 0.01 mg/dL and the GLC [8] was 189 mg/dL. For the same substance, the IP [8] was 8.8 mg/dL, the K [8] was 4.5 meq/L and the LDH [8] was 77.3 IU/L. It also gave a PL [8] of 168 mg/dL, an RALB [8] of 2.6 g/dL and a TBIL [8] of 0.0633 mg/dL. The TC [8] was 94.7 mg/dL, the TG [8] was 52.3 mg/dL and the TP [8] was 5.6 g/dL. For the same substance, the gamma-GTP [8] was 1 IU/L and the TERMINAL_BW (0.3 mg/kg, 3 h, dose 300 ug/Kg, dose level Middle) was 194.5 g.
